# According to patent US20250250265A1, “BENZOTHIAZOLE-PHENYLSULFONYL-PIPERIDINE ANALOGS AS ACTIVATORS OF NACYLPHOSPHATIDYLETHANOLAMINE HYDROLYZING PHOSPHOLIPASE D” (priority 2022, published 2025):
# Values joined by “and” are separate entries in the source; they are usually repeats but may differ in a detail not shown here. Identical values can stand only once. “Also recorded” adds a separate entry of the source.
# Key:
# [1] = molecular target: T1, NAPE-PLD activity of HepG2 cells (Homo sapiens, UniProt Q6IQ20); experiment: Cell-based NAPE-PLD activity in HepG2 cells (flame-NAPE); details: 10 μM
# T1 construct: endogenous in cells; host or cells: HepG2
# T1 sequence (Q6IQ20 whole entry): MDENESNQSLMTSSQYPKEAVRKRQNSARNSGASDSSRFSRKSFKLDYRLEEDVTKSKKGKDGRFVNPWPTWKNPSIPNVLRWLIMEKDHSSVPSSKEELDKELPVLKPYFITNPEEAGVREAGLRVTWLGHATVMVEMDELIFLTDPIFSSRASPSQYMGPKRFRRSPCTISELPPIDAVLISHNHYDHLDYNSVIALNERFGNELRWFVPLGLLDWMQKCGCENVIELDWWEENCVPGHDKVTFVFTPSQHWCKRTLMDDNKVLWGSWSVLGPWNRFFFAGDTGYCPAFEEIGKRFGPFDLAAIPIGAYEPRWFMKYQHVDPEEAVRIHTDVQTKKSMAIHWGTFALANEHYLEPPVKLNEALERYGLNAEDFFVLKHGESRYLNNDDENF
# Procedure: In vitro models of the hepatic steatosis of non-alcoholic fatty liver disease (NAFLD) are well-established, with the primary method being incubation of primary human hepatocytes or hepatocyte cell lines such as HepG2, HuH7, HepaRG, with oleic acid and palmitic acid for 24 to 48 h, then measuring the resulting steatosis, lipid peroxidation, apoptosis, and inflammatory gene expression. Using flame-NAPE to measure NAPE-PLD activity in the human hepatoma HepG2 cell line, the experimental data confirmed that VU534 activated NAPE-PLD in human cells (AC50 940 nM; max % bA 155%). Bithionol (10 μM) reduced HepG2 flame-NAPE hydrolysis by >67%.
# (§1) NAPE-PLD activity was measured in cells as previously described, except that FluoroBrite DMEM (Gibco A1896701) was used as media. See Zarrow et al., J. Lipid Res. 63(1): 100156 (2022). For RAW264.7 assays, PED-A1 (3.6 μM final) was used as the substrate with 10 μM orlistat added to inhibit PLA1 activity, while for HepG2 cells, flame-NAPE was used (with no orlistat added).
# [2] = molecular target: T2, Fatty Acid Amide Hydrolase (FAAH) (Homo sapiens, UniProt O00519); experiment: FAAH activity assay (Cayman Chemicals); format: biochemical; details: Table 3; 33 μM
# T2 construct: purchased Cayman Chemicals
# T2 sequence (O00519 1-579): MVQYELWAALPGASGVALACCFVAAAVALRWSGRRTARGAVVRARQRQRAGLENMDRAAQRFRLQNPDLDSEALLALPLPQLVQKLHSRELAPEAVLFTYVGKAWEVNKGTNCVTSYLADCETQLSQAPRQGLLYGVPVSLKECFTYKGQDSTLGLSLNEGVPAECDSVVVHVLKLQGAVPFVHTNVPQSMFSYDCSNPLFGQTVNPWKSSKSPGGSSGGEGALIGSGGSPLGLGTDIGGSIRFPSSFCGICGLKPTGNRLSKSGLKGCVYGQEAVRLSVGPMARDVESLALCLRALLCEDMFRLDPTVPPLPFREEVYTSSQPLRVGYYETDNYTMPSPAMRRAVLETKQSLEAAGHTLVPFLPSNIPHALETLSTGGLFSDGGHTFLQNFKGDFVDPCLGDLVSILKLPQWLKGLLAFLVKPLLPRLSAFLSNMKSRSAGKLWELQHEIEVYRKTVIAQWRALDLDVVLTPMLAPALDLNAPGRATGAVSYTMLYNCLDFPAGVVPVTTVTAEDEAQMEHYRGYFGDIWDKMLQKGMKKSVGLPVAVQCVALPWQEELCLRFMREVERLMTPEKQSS
# Procedure: Concentration response curves were plotted for VU534 for the enzymes fatty acid amide hydrolase (FAAH) and soluble epoxide hydrolase (sEH).
# The fluorescence interference assay was performed using the same method as the HTS assay, but with BODIPY-FL C5 (Thermo Fisher Scientific) used in place of PED-A1. sEH and FAAH activity assays were performed according to the manufacturer's specifications (Cayman Chemicals).
# [3] = molecular target: T3, recombinant mouse NAPE-PLD (Mus musculus, UniProt Q8BH82); experiment: In vitro fluorescence NAPE-PLD activity assay (HTS/CRC) with recombinant mouse NAPE-PLD and PED-A1; format: biochemical
# T3 construct: hexahistidine (His6) (C); made in house; host or cells: E. coli
# T3 sequence (Q8BH82 1-396): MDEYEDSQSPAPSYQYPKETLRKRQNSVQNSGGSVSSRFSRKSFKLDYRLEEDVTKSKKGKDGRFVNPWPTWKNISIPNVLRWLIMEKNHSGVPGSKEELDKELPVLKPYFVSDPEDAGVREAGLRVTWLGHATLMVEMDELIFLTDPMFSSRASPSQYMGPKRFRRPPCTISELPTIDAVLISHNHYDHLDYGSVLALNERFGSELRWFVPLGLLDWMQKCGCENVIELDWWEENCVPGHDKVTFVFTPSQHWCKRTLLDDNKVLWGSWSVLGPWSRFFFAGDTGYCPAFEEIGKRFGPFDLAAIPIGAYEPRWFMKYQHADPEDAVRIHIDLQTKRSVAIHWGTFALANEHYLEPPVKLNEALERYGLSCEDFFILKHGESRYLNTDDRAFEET
# Procedure: Using the fluorogenic NAPE substrate, PED-A1, and recombinant mouse NAPE-PLD (rNAPE-PLD), an in vitro high-throughput (HTS) assay was conducted to screen ˜40,000 compounds for their ability to modulate NAPE-PLD activity. The HTS assay enabled the detection of both NAPE-PLD activators and inhibitors. […] Initial structure-activity response studies with the top hits identified benzothiazole phenylsulfonyl-piperidine carboxamide analogs (BT-PSP analogs) as lead compounds for NAPE-PLD activators (Table 1). The lead BT-PSP analog identified, VU534, induces 50% of its activation effect on NAPE-PLD at 270 nM (AC50 270 nM), and induces a maximal effect of 195% of basal NAPE-PLD activity (Table 1).
# In vitro fluorescence NAPE-PLD activity assays using recombinant NAPE-PLD and either PED-A1 or flame-NAPE as fluorogenic substrate were performed as previously described except with small modifications as noted below. See Aggarwal et al., J. Biol. Chem. 295(21): 7289-7300 (2020); Zarrow et al., J. Lipid Res. 63(1): 100156 (2022).
# For the HTS assays, test compounds were incubated with recombinant enzyme for 1 h prior to adding PED-A1 (final 0.4 μM) mixed with N-palmitoyl-dioleoyl-PE (final 3.6 μM) to adjust for the high sensitivity of the Panoptic instrument (WaveFront Biosciences). Assays used black-wall, clear-bottom, non-sterile, and non-treated 384-well plates (Greiner Bio-One 781906). The assay was read in kinetic fluorescence mode on the Panoptic instrument for 4 min and the slope of the signal from 30-100 s was used for analysis. A total of 39,328 compounds from the Vanderbilt Discovery Collection were tested, each at 10 μM. The tested compounds were chosen to represent a structurally diverse selection from the full library. Each 384-well plate included 320 test compound wells and 64 control wells. Unlike previous pilot screening assays, bithionol (10 μM final) was used in place of lithocholic acid (100 μM final) as the inhibitor control. Before performing high-throughput screening, a checkerboard assay was performed to validate the assay parameters. This yielded a Z′ score of 0.676. Z′ scores were also calculated for each plate during screening, and plates with scores <0.5 were re-run. The average Z′ across all screening plates was 0.52, and the total hit rate was 3.6%. B-scores were calculated from the initial slopes across each plate using WaveGuide software (WaveFront Biosiences). Modulator hits were defined as compounds with absolute B-scores of 3 or higher. The number of compounds in various B-score ranges were as follows: […], 12 compounds; −10 to −5, 221 compounds; −5 to −3, 770 compounds; −3 to 3, 37924 compounds; 3 to 4, 314 compounds; 4 to 6, 70 compounds; 6 to 10, 15 compounds. Activator hits with B-scores of >3 were selected for the replication assay and a selection of analogs of the activators.
# Concentration response curve (CRC) experiments used the same assay conditions as the HTS assay, except that graded concentrations of each test compound were used, with total amount of vehicle (DMSO) kept constant. CRC experiments with purified recombinant mouse NAPE-PLD were performed on two separate days, with values from each day normalized to vehicle only controls on same plate, and then all normalized values from both days averaged together. CRC experiments with human NAPE-PLD represent value from only a single day, due to limited amounts of this recombinant enzyme.
# [4] = tested on: HepG2 human hepatocytoma cells; experiment: Cytotoxicity (MTT) in HepG2 cells; format: cell-based; details: Table 3; 33 μM
# Procedure: (§2) Cytotoxicity was measured using MTT as previously described except that the studies used 96-well plates with 100 μL of 0.3 mg/mL MTT solution was added after 24 h of treatment and then replaced after 3 h with 0.1 M HCl in isopropanol. See Aggarwal et al., J. Biol. Chem. 295(21): 7289-7300 (2020). Viability was expressed as percent absorbance at 560 nm relative to vehicle controls.
# [5] = tested on: RAW264.7 mouse macrophages; experiment: Cytotoxicity (MTT) in RAW264.7 macrophages; format: cell-based; details: Table 3; 33 μM
# Procedure: as §2
# [6] = tested on: bone marrow-derived macrophages (BMDM); experiment: Efferocytosis assay with bone marrow-derived macrophages and apoptotic Jurkat cells; format: cell-based, mouse; details: 10 μM, 6 h before assay
# Procedure: Male C57BL6/j wild-type or Napepld^−/− mice were euthanized with isoflurane and hind legs were removed. Marrow was flushed from femurs and tibias using DMEM containing 4.5 g/L glucose and a 26-gauge needle. Cell suspensions were passed over a 40-μm filter, centrifuged at 500×g, and resuspended in 50 ml of DMEM containing 4.5 g/L glucose, 20% L-cell conditioned media, 10% heat-inactivated FBS, and 1% penicillin/streptomycin. 10 ml of cell suspension was plated into each of five 100-mm dishes and incubated for four days at 37° C. and 5% CO2. On day four, non-adherent cells and debris were aspirated from the plates and replaced with fresh media. After 7 days of differentiation, cells were harvested for use in experiments.
# Assays were performed according to previously described protocols. See e.g., Doran et al. J. Clin. Invest. 127(11): 4075-4089 (2017); Proto et al., Immunity 49(4): 666-677 (2018). Bone marrow-derived macrophages were seeded at 0.25×10^6 cells/well in a non-tissue culture-treated 24-well plate and allowed to adhere overnight. Macrophages were treated with various compounds at a final concentration of 10 μM or DMSO as a vehicle for 6 hours prior to each experiment. Jurkat cells were exposed to UV light (254 nm) for 5 minutes to induce apoptosis and then incubated in a 37° C. incubator with 5% CO2 for 2 hours. Surveillance staining of these cells routinely yielded approximately 80-90% apoptosis (Annexin V+) using this method. Apoptotic Jurkat cells were labeled with either CellVue Claret (Millipore Sigma) or Cell Trace Violet (Invitrogen) per the manufacturer's instructions. After staining, cells were resuspended in macrophage medium at a density of […] and 500 μL of this suspension was added to the drug-containing media on the macrophages to achieve a cell ratio of 3:1 Jurkats: macrophages. After incubating for 45 minutes at 37° C. and 5% CO2, the medium was aspirated, and the macrophages were gently washed twice with PBS to remove unbound apoptotic cells. Macrophages were then removed from the plate using Cell Stripper (Sigma), washed, resuspended in staining buffer consisting of 2% FBS in PBS with 2 mM EDTA, and blocked with anti-mouse CD16/32 antibodies for 15 minutes on ice. After blocking, cells were pelleted and resuspended with F4/80. Cells were incubated for 45 minutes on ice in the dark, then washed and resuspended in staining buffer for analysis. Cells were analyzed using an Attune NxT cytometer (Thermo Fisher) and data were analyzed using FlowJo software to quantify the proportion of F4/80^+ macrophages that co-stained for apoptotic cells (% efferocytosis).
# [7] = molecular target: T3, recombinant mouse NAPE-PLD; experiment: In vitro competition assay (LEI-401, VU233, VU534) on recombinant mouse Nape-pld; format: biochemical
# Procedure: A similar in vitro fluorescence Nape-pld activity assay was used for LEI-401 and VU233 competition assays except that this assay was performed using black-walled clear-bottom 96-well plates with 3.5 μM PED-A1 and no N-palmitoyl-dioleoyl-PE used as substrate and read in a BioTek Synergy H1 plate reader with the slope of the fluorescence signal from 0-4 min (linear phase) used as the assay readout. LEI-401, VU233, and VU534 were incubated for 1 h prior to addition of PED-A1. The Michaelis-Menten study used this same assay except with graded concentration of flame-NAPE.
# [8] = molecular target: T4, NAPE-PLD activity in primary BMDMϕ (Mus musculus, UniProt Q8BH82); experiment: NAPE-PLD activity in primary bone marrow derived macrophages; format: cell-based; details: VU534 at 10 μM (FIG. 5)
# T4 construct: endogenous in cells; host or cells: primary bone-marrow-derived macrophages (C57BL6/j mice)
# T4 sequence (Q8BH82 1-396): T3 sequence (Q8BH82 1-396)
# [9] = molecular target: T5, NAPE-PLD activity of RAW264.7 macrophages (Mus musculus, UniProt Q8BH82); experiment: Cell-based NAPE-PLD activity in RAW264.7 macrophages (PED-A1 with orlistat); details: with 20 μM VU534 (FIG. 17C)
# T5 construct: endogenous in cells; host or cells: RAW264.7
# T5 sequence (Q8BH82 1-396): T3 sequence (Q8BH82 1-396)
# Procedure: as §1
compound,measurement,setting,value
Cc1cc(F)ccc1S(=O)(=O)N1CCC(C(=O)Nc2nc3c(C)cccc3s2)CC1 [VU212],In-cell NAPE-PLD activity in HepG2 (10 μM) with PED-A1 or flame-NAPE as substrate,[1]; Table 3,197% and 268%
same,Remaining FAAH Activity (33 μM),[2],61% and 79%
same,EC50,"[3]; Table 3, read-out: In vitro EC50",~2900 nM
same,Emax,"[3]; Table 3, read-out: In vitro Emax (100% activity is baseline activity of vehicle only)",~151%
same,Emax (95% Cl),"[3]; Table 4, maximal efficacy as fold increase in NAPE-PLD activity versus vehicle only",1.6 (1.5-1.6) fold
same,% HepG2 viability (33 μM),[4],66% and 69%
same,% viability RAW 264.7 (33 μM),[5],32% and 56%
"CCC(=O)N1CCC(NC(=O)Nc2ccc(OC(F)(F)F)cc2)CC1 [TPPU, N-[1-(1-Oxopropyl)-4-piperidinyl]-N′-[4-(trifluoromethoxy)phenyl]urea, reference compound]",effect on efferocytosis by wild-type BMDM,[6],Neither AUDA nor TPPU significantly enhanced efferocytosis
"O=C(NCC1CC1)c1cc(N2CC[C@H](O)C2)nc(N2CCC[C@@H](c3ccccc3)C2)n1 [LEI-401, reference compound]",inhibition of mouse NAPE-PLD activity at 100 μM,[7]; 100 μM,nearly complete inhibition
same,inhibition of mouse NAPE-PLD activity,[7]; graded concentrations (FIG. 19C),inhibited mouse NAPE-PLD activity in a concentration-dependent manner
"O=C(O)CCCCCCCCCCCNC(=O)NC12CC3CC(CC(C3)C1)C2 [AUDA, 12-[[(tricyclo[3.3.1.13,7]dec-1-ylamino)carbonyl]amino]-dodecanoic acid, reference compound]",effect on efferocytosis by wild-type BMDM,[6],Neither AUDA nor TPPU significantly enhanced efferocytosis
"Oc1c(Cl)cc(Cl)cc1Sc1cc(Cl)cc(Cl)c1O [bithionol, reference compound]",effect on NAPE-PLD activity in primary BMDM,[8],inhibits NAPE-PLD activity
same,reduction of HepG2 flame-NAPE hydrolysis,[1],> 67%
same,effect on efferocytosis by wild-type BMDM,[6],markedly reduced efferocytosis
same,effect on efferocytosis by wild-type BMDM,[6]; listed as Bith,reduced efferocytosis
same,effect on increase in RAW264.7 NAPE-PLD activity induced by 20 μM VU534,[9],blocked in a concentration-dependent manner; also recorded: blocks increased Nape-pld activity
